Results on 2 compounds are retold here after PMC5954133, “Functional Characterization of a Small Alarmone Hydrolase in Corynebacterium glutamicum” (Frontiers in Microbiology, 2018).

In this assay the target is T1, RelSCg (Corynebacterium glutamicum, UniProt Q8NNR8).
T1 construct: gene Cgl2119; full-length; expressed in E. coli ER2566
T1 sequence (Q8NNR8 1-341): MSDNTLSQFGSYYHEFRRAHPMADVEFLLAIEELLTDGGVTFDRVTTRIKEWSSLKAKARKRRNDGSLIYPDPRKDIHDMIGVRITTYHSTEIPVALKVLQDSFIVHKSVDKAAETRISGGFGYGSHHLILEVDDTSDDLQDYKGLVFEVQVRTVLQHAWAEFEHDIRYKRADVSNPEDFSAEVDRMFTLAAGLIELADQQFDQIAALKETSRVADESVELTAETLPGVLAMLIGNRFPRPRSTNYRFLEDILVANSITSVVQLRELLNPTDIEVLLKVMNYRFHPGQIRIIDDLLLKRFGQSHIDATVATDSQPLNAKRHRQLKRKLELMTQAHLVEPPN
Kind of assay: preparative pyrophosphorylation, product identified by HPLC-MS. Format: biochemical. The conditions noted are these: 12 mM ATP, 10 mM MgCl2, 50 mM Tris-HCl pH 8, 16 h.

In the case of `Nc1nc2c(ncn2[C@@H]2O[C@H](COP(=O)(O)OP(=O)(O)O)[C@@H](O)[C@H]2O)c(=O)[nH]1` [GDP], the “preparative pyrophosphorylation, product identified by HPLC-MS” value is given as “produced by RelSCg-catalyzed pyrophosphorylation of GMP, GDP or GTP”. In the case of `Nc1nc2c(ncn2[C@@H]2O[C@H](COP(=O)(O)O)[C@@H](O)[C@H]2O)c(=O)[nH]1` [GMP] it was “produced by RelSCg-catalyzed pyrophosphorylation of GMP, GDP or GTP”.
